For test [1], the system named is Mus musculus. As to the kind of experiment: Analgesic activity in Swiss albino Mus musculus (mouse) assessed as inhibition of phenylbenzoquinone-induced writhing at 200 mg/kg, sc administered 30 min prior to acetic acid challenge measured for 30 min post phenylbenzoquinone challenge relative to control. It counts as functional. The conditions noted are these: route subcutaneous.

Test [2] concerns Mus musculus. In words: Analgesic activity in Swiss albino Mus musculus (mouse) assessed as inhibition of acetic acid-induced writhing at 200 mg/kg, sc administered 30 min prior to acetic acid challenge measured for 30 min post acetic acid challenge relative to control. The conditions noted are these: route subcutaneous. Format: functional.
The test system of test [3] is Rattus norvegicus. As to the kind of experiment: Anti-inflammatory activity in Wistar Rattus norvegicus (rat) assessed as inhibition of carrageenan-induced paw edema at 0.1 mg/kg, ip administered 30 min prior to carrageenan-challenge measured at 6 hr by plethysmometric analysis relative to control. It counts as functional. To be noted: route intraperitoneal.
In test [4] the test system is Rattus norvegicus. As to the kind of experiment: Anti-inflammatory activity in Wistar Rattus norvegicus (rat) assessed as inhibition of carrageenan-induced paw edema at 0.1 mg/kg, ip administered 30 min prior to carrageenan-challenge measured at 2 hr by plethysmometric analysis relative to control. It counts as functional. To be noted: route intraperitoneal.
Test [5] has as its system Rattus norvegicus. In words: Anti-inflammatory activity in Wistar Rattus norvegicus (rat) assessed as inhibition of carrageenan-induced paw edema at 0.1 mg/kg, ip administered 30 min prior to carrageenan-challenge measured at 1 hr by plethysmometric analysis relative to control. It counts as functional. The conditions noted are these: route intraperitoneal.
Test [6] has as its system Rattus norvegicus. As to the kind of experiment: Anti-inflammatory activity in Wistar Rattus norvegicus (rat) assessed as inhibition of carrageenan-induced paw edema at 0.5 mg/kg, ip administered 30 min prior to carrageenan-challenge measured at 2 hr by plethysmometric analysis relative to control. It counts as functional. The conditions noted are these: route intraperitoneal.

Test [7] concerns Rattus norvegicus. In words: Anti-inflammatory activity in Wistar Rattus norvegicus (rat) assessed as inhibition of carrageenan-induced paw edema at 0.5 mg/kg, ip administered 30 min prior to carrageenan-challenge measured at 6 hr by plethysmometric analysis relative to control. It counts as functional. To be noted: route intraperitoneal.
Test [8] has as its system Rattus norvegicus. As to the kind of experiment: Anti-inflammatory activity in ip dosed Wistar Rattus norvegicus (rat) assessed as inhibition of carrageenan-induced paw edema administered 30 min prior to carrageenan-challenge measured at 1 to 6 hr by plethysmometric analysis relative to control. It counts as functional, organism-based.
The subject of test [9] is Mus musculus. In words: Analgesic activity in Swiss albino Mus musculus (mouse) assessed as inhibition of phenylbenzoquinone-induced writhing at 0.5 mg/kg, sc administered 30 min prior to acetic acid challenge measured for 30 min post phenylbenzoquinone challenge relative to control. It counts as functional. To be noted: route subcutaneous.
Test [10] deals with Rattus norvegicus. In words: Anti-inflammatory activity in Wistar Rattus norvegicus (rat) assessed as inhibition of carrageenan-induced paw edema at 0.1 mg/kg, ip administered 30 min prior to carrageenan-challenge measured at 3 hr by plethysmometric analysis relative to control. It counts as functional. The conditions noted are these: route intraperitoneal.
The subject of test [11] is Mus musculus. As to the kind of experiment: Analgesic activity in Swiss albino Mus musculus (mouse) assessed as inhibition of phenylbenzoquinone-induced writhing at 0.1 mg/kg, sc administered 30 min prior to acetic acid challenge measured for 30 min post phenylbenzoquinone challenge relative to control. Format: functional. The conditions noted are these: route subcutaneous.

The subject of test [12] is Mus musculus. In words: Analgesic activity in Swiss albino Mus musculus (mouse) assessed as inhibition of acetic acid-induced writhing at 0.5 mg/kg, sc administered 30 min prior to acetic acid challenge measured for 30 min post acetic acid challenge relative to control. It counts as functional. To be noted: route subcutaneous.
The test system of test [13] is Mus musculus. As to the kind of experiment: Analgesic activity in Swiss albino Mus musculus (mouse) assessed as inhibition of acetic acid-induced writhing at 0.05 mg/kg, sc administered 30 min prior to acetic acid challenge measured for 30 min post acetic acid challenge relative to control. Format: functional. The conditions noted are these: route subcutaneous.
In test [14] the test system is Rattus norvegicus. As to the kind of experiment: Anti-inflammatory activity in Wistar Rattus norvegicus (rat) assessed as inhibition of carrageenan-induced paw edema at 0.5 mg/kg, ip administered 30 min prior to carrageenan-challenge measured at 4 hr by plethysmometric analysis relative to control. It counts as functional. To be noted: route intraperitoneal.
The subject of test [15] is Mus musculus. In words: Analgesic activity in sc dosed Swiss albino Mus musculus (mouse) assessed as inhibition of phenylbenzoquinone-induced writhing administered 30 min prior to acetic acid challenge measured for 30 min post phenylbenzoquinone challenge relative to control. Format: functional, organism-based.
For test [16], the system named is Mus musculus. In words: Analgesic activity in sc dosed Swiss albino Mus musculus (mouse) assessed as inhibition of acetic acid-induced writhing administered 30 min prior to acetic acid challenge measured for 30 min post acetic acid challenge relative to control. Format: functional, organism-based.
Test [17] concerns Mus musculus. As to the kind of experiment: Analgesic activity in Swiss albino Mus musculus (mouse) assessed as inhibition of acetic acid-induced writhing at 0.1 mg/kg, sc administered 30 min prior to acetic acid challenge measured for 30 min post acetic acid challenge relative to control. It counts as functional. To be noted: route subcutaneous.
The test system of test [18] is Rattus norvegicus. As to the kind of experiment: Anti-inflammatory activity in Wistar Rattus norvegicus (rat) assessed as inhibition of carrageenan-induced paw edema at 0.1 mg/kg, ip administered 30 min prior to carrageenan-challenge measured at 5 hr by plethysmometric analysis relative to control. Format: functional. The conditions noted are these: route intraperitoneal.

The test system of test [19] is Rattus norvegicus. In words: Anti-inflammatory activity in Wistar Rattus norvegicus (rat) assessed as inhibition of carrageenan-induced paw edema at 0.5 mg/kg, ip administered 30 min prior to carrageenan-challenge measured at 5 hr by plethysmometric analysis relative to control. It counts as functional. The conditions noted are these: route intraperitoneal.
Test [20] relates to Rattus norvegicus. In words: Anti-inflammatory activity in Wistar Rattus norvegicus (rat) assessed as inhibition of carrageenan-induced paw edema at 0.1 mg/kg, ip administered 30 min prior to carrageenan-challenge measured at 4 hr by plethysmometric analysis relative to control. It counts as functional. The conditions noted are these: route intraperitoneal.
The subject of test [21] is Rattus norvegicus. In words: Anti-inflammatory activity in Wistar Rattus norvegicus (rat) assessed as inhibition of carrageenan-induced paw edema at 0.5 mg/kg, ip administered 30 min prior to carrageenan-challenge measured at 3 hr by plethysmometric analysis relative to control. The conditions noted are these: route intraperitoneal. Format: functional.
Test [22] concerns Mus musculus. In words: Analgesic activity in Swiss albino Mus musculus (mouse) assessed as inhibition of phenylbenzoquinone-induced writhing at 0.05 mg/kg, sc administered 30 min prior to acetic acid challenge measured for 30 min post phenylbenzoquinone challenge relative to control. To be noted: route subcutaneous. Format: functional.
The test system of test [23] is Rattus norvegicus. As to the kind of experiment: Anti-inflammatory activity in Wistar Rattus norvegicus (rat) assessed as inhibition of carrageenan-induced paw edema at 0.5 mg/kg, ip administered 30 min prior to carrageenan-challenge measured at 1 hr by plethysmometric analysis relative to control. It counts as functional. The conditions noted are these: route intraperitoneal.

In test [24] the test system is Rattus norvegicus. In words: Anti-inflammatory activity in Wistar Rattus norvegicus (rat) assessed as inhibition of carrageenan-induced paw edema at 1 mg/kg, ip administered 30 min prior to carrageenan-challenge measured at 6 hr by plethysmometric analysis relative to control. Format: functional. To be noted: route intraperitoneal.
Test [25] deals with Rattus norvegicus. As to the kind of experiment: Anti-inflammatory activity in Wistar Rattus norvegicus (rat) assessed as inhibition of carrageenan-induced paw edema at 1 mg/kg, ip administered 30 min prior to carrageenan-challenge measured at 3 hr by plethysmometric analysis relative to control. Format: functional. The conditions noted are these: route intraperitoneal.
Test [26] deals with Rattus norvegicus. As to the kind of experiment: Anti-inflammatory activity in Wistar Rattus norvegicus (rat) assessed as inhibition of carrageenan-induced paw edema at 1 mg/kg, ip administered 30 min prior to carrageenan-challenge measured at 4 hr by plethysmometric analysis relative to control. It counts as functional. The conditions noted are these: route intraperitoneal.

The subject of test [27] is Rattus norvegicus. As to the kind of experiment: Anti-inflammatory activity in Wistar Rattus norvegicus (rat) assessed as inhibition of carrageenan-induced paw edema at 1 mg/kg, ip administered 30 min prior to carrageenan-challenge measured at 2 hr by plethysmometric analysis relative to control. The conditions noted are these: route intraperitoneal. It counts as functional.

For test [28], the system named is Rattus norvegicus. As to the kind of experiment: Anti-inflammatory activity in Wistar Rattus norvegicus (rat) assessed as inhibition of carrageenan-induced paw edema at 1 mg/kg, ip administered 30 min prior to carrageenan-challenge measured at 5 hr by plethysmometric analysis relative to control. Format: functional. To be noted: route intraperitoneal.
The subject of test [29] is Rattus norvegicus. In words: Anti-inflammatory activity in Wistar Rattus norvegicus (rat) assessed as inhibition of carrageenan-induced paw edema at 1 mg/kg, ip administered 30 min prior to carrageenan-challenge measured at 1 hr by plethysmometric analysis relative to control. It counts as functional. The conditions noted are these: route intraperitoneal.

As for `CC(=O)Oc1ccccc1C(=O)O`, the inhibition in vivo at 200 mg/kg worked out at 60% in test [1] and 62% in [2].

On to `CC(C)(O)/C=C/C(=O)[C@](C)(O)[C@H]1[C@H](O)C[C@@]2(C)[C@@H]3CC=C4[C@@H](C=C(O[C@@H]5O[C@H](CO)[C@@H](O)[C@H](O)[C@H]5O)C(=O)C4(C)C)[C@]3(C)CC[C@]12C`, for which the inhibition in vivo at 0.1 mg/kg in test [3] was 73%; in test [4], 13%; in test [5], 12%; in test [10], 40%; in test [11], 84%; in [17], 88%. The inhibition in vivo at 0.1 mg/kg in test [18] came to 72%; in test [20] it was 60%. In addition, the inhibition in vivo at 0.5 mg/kg in test [6] amounted to 40%; in test [7], 84%; in test [9], 89%; in test [12] it was 92%; in test [14] it was 80%; in test [19], 84%. The inhibition in vivo at 0.5 mg/kg in test [21] turned out to be 58%; in [23], 38%. In addition, the inhibition entry in test [8], in test [15] and in test [16] was “Dose-dependent effect” in each case. In addition, the inhibition in vivo at 0.05 mg/kg in test [13] was found to be 86%; in [22] it was 80%.

Take `C[C@@H]1C[C@H]2[C@@H]3CCC4=CC(=O)C=C[C@]4(C)[C@@]3(F)[C@@H](O)C[C@]2(C)[C@@]1(O)C(=O)CO` [DEXAMETHASONE]: the inhibition in vivo at 1 mg/kg in test [24] stood at 89%; in test [25], 45%; in test [26] it was 71%; in test [27], 33%; in test [28] it was 87%; in test [29] it was 29%.

The record behind these values is ChEMBL document CHEMBL3046683, “Anti-inflammatory and analgesic activities of a new cucurbitacin isolated from Citrullus colocynthis seeds” (2013).
